pIC50: −log10 of the molar value.
Legend:
[1] = system: Colo205 (Colon); assay: cell survival / MTT combination cytotoxicity; format: cell-based, human; conditions: Homo sapiens, COLO 205
[2] = target: PRK2 (Homo sapiens, UniProt Q16513); assay: biochemical kinase screening assay
[3] = target: EGFR2 (Homo sapiens, UniProt P35968); assay: biochemical kinase screening assay; conditions: read-out: IC50 (nM), given as Ki
[4] = target: Chk2 (Homo sapiens, UniProt O96017); assay: cell-based or ex vivo assays of CHK2 activity
Sequence of Chk2 (O96017 whole entry): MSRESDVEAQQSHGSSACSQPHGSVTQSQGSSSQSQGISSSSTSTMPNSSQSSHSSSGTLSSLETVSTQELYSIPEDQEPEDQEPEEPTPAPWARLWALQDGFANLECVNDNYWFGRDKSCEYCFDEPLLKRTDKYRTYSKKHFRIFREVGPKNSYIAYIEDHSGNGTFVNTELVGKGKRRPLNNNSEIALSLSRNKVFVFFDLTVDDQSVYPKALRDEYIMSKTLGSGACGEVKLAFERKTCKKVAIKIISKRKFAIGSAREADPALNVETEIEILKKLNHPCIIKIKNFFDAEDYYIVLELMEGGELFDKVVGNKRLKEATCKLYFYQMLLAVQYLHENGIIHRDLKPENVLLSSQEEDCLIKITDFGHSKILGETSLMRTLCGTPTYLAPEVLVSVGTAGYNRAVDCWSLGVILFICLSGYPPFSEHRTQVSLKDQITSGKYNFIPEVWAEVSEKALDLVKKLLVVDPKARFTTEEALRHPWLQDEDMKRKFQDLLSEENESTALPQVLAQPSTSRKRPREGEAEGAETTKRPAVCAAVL

[5] = target: Ret (Homo sapiens, UniProt P07949); assay: biochemical kinase screening assay
Sequence of Ret (P07949 29-1114): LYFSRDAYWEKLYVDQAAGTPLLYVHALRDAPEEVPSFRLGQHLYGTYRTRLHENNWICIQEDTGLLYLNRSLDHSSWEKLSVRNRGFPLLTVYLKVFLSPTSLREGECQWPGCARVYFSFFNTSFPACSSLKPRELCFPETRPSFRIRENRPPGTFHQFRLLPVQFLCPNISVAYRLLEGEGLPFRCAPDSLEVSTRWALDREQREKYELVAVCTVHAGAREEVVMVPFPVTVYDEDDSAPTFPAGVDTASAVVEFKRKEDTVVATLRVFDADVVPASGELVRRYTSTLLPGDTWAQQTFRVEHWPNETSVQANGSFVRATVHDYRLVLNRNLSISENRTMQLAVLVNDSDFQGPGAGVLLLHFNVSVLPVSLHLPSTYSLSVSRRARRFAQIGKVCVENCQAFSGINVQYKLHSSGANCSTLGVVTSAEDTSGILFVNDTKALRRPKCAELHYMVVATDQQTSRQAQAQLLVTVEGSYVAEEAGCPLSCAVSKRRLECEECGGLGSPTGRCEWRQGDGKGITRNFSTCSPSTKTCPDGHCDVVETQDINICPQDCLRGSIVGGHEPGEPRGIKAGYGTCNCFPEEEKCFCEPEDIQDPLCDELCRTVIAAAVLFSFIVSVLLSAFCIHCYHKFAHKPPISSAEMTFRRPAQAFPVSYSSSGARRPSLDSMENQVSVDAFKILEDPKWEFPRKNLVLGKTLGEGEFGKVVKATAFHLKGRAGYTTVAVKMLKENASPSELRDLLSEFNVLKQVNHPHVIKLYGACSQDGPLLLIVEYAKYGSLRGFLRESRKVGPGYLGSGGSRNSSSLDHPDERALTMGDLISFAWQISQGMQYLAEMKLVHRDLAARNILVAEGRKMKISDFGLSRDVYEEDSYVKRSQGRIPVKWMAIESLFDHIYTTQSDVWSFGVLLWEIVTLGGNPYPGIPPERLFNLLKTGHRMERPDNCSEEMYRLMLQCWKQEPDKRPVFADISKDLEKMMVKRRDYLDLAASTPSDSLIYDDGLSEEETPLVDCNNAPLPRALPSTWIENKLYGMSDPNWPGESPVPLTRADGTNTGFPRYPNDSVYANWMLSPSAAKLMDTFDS

[6] = in vivo; conditions: mouse
[7] = target: Blk(m) (Mus musculus, UniProt P16277); assay: biochemical kinase screening assay
Sequence of Blk(m) (P16277 whole entry): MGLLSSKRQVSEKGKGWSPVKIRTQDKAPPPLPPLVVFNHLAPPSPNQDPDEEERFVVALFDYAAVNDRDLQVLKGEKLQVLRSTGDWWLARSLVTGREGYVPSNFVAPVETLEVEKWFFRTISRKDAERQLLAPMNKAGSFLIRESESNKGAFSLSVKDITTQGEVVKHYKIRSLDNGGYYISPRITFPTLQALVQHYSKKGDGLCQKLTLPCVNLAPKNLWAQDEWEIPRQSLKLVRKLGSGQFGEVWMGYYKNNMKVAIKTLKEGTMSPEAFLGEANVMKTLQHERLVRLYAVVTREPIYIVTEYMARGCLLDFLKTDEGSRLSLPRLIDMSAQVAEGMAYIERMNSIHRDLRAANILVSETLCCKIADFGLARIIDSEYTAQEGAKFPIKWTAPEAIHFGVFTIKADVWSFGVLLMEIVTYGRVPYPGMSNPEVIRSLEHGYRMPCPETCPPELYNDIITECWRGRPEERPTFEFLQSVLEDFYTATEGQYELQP

[8] = target: EphB4 (Homo sapiens, UniProt P54760); assay: biochemical kinase screening assay
Sequence of EphB4 (P54760 16-987): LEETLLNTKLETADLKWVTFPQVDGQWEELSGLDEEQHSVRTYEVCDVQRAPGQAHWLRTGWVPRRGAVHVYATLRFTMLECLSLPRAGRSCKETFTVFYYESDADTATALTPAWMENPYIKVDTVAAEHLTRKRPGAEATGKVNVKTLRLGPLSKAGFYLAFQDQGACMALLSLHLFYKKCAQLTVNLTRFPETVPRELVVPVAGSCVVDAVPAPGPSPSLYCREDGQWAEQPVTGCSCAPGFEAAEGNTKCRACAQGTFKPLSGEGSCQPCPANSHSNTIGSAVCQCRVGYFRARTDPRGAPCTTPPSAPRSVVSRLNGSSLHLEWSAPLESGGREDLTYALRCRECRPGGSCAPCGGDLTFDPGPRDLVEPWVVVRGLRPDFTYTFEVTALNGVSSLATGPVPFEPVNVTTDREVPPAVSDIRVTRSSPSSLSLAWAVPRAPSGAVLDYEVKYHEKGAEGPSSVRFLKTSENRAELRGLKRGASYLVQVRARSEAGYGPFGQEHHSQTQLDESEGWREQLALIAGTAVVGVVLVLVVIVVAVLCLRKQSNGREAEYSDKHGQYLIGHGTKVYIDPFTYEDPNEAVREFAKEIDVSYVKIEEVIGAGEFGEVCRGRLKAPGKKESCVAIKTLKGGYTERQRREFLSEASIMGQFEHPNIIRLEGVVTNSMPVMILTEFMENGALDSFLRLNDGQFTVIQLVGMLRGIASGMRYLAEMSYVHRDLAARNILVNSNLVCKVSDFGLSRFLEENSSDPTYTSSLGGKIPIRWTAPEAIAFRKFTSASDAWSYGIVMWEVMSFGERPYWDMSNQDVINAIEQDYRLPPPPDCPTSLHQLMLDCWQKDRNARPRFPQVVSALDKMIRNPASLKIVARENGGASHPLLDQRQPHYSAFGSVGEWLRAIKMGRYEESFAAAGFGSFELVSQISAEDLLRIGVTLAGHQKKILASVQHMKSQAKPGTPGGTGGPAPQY

[9] = target: Rsk2 (Homo sapiens, UniProt P51812); assay: biochemical kinase screening assay
[10] = target: Abl(m) (Mus musculus, UniProt P00520); assay: biochemical kinase screening assay
[11] = target: Yes (Homo sapiens, UniProt P07947); assay: biochemical kinase screening assay
Sequence of Yes (P07947 whole entry): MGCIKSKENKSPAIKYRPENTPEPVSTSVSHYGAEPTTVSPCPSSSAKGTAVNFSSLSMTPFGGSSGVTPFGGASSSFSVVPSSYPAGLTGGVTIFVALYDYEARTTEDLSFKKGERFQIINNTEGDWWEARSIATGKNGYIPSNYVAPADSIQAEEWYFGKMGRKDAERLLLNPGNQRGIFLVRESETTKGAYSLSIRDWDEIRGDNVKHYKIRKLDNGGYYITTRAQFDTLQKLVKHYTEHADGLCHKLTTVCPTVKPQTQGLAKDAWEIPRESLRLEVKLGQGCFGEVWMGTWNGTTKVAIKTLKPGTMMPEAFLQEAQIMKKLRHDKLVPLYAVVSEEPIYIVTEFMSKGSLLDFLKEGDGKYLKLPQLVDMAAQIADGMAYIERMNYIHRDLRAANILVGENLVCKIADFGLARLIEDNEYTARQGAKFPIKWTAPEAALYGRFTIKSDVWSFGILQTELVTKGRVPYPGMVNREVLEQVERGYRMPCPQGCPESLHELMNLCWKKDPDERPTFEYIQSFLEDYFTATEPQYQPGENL

[12] = system: HUVEC cells; assay: cell survival assay in normal cells; format: cell-based
Protocol: (§1) The cytotoxic effect induced by the combination treatment in HUVEC cells is negligible compared with the cytotoxicity induced by the same treatment in tumor cells. […] A cell survival assay was also performed in HTC116 cells (human colon carcinoma) that were transiently transfected with a plasmid containing either p53 wild type or mutant.

[13] = target: Fyn (Homo sapiens, UniProt P06241); assay: biochemical kinase screening assay
Sequence of Fyn (P06241 whole entry): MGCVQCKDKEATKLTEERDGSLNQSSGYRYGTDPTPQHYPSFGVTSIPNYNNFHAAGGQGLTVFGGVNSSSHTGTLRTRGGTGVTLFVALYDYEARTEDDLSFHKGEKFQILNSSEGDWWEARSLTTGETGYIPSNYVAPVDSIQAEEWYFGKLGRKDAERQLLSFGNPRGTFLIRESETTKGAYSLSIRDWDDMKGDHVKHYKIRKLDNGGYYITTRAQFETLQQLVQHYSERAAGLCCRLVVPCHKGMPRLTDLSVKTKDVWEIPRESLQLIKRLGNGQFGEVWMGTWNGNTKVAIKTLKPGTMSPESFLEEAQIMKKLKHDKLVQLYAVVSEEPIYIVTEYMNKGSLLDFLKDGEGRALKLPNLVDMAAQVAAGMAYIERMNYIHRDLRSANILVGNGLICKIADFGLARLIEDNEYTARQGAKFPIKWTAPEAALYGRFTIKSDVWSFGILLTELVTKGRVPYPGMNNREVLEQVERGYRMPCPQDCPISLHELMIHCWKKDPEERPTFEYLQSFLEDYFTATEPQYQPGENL

[14] = target: PDGFRa (Homo sapiens, UniProt P16234); assay: biochemical kinase screening assay
[15] = target: cSRC (Homo sapiens, UniProt P12931); assay: biochemical kinase screening assay
[16] = system: gemcitabine induced S-Phase arrest; assay: flow cytometry cell cycle / apoptosis analysis; format: cell-based
[17] = target: Lyn (Homo sapiens, UniProt P07948); assay: biochemical kinase screening assay
Sequence of Lyn (P07948 whole entry): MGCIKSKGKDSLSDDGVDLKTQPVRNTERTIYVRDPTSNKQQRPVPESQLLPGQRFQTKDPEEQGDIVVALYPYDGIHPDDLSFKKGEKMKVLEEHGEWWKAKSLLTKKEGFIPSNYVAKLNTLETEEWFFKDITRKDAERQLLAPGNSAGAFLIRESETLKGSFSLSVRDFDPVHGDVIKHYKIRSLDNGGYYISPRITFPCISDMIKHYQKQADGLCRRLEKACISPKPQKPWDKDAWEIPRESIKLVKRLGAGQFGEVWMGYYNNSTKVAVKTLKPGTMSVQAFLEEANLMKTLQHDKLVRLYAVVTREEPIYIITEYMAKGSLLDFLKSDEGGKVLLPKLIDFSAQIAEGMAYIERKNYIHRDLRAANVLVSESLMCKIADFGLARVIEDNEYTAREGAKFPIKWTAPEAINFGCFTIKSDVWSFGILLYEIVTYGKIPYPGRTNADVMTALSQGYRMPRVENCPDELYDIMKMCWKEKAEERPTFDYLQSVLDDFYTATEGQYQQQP

[18] = target: FGFR3 (Homo sapiens, UniProt P22607); assay: biochemical kinase screening assay
[19] = system: mutant p53 HCT116 cells; assay: cell survival assay, transiently transfected p53 mutant; format: cell-based, human; conditions: Compound 1 + gemcitabine compared with gemcitabine alone
Protocol: as §1

[20] = target: PKBa (Homo sapiens, UniProt P31749); assay: biochemical kinase screening assay
[21] = system: HT29 (Colon); assay: cell survival / MTT combination cytotoxicity; format: cell-based, human; conditions: Homo sapiens, HT-29
[22] = system: K562 (Leukemia); assay: cell survival / MTT combination cytotoxicity; format: cell-based, human; conditions: Homo sapiens
[23] = system: p53-defective human cancer cell lines; assay: cell survival / MTT assays, cell line not named; format: cell-based
[24] = system: wild type p53 HCT116 cells; assay: cell survival assay, transiently transfected p53 wild type; format: cell-based, human; conditions: Compound 1 + gemcitabine compared with gemcitabine alone
Protocol: as §1

Cn1cc(-c2[nH]c3cc(NC(=O)[C@H](N)C4CCCCC4)cc4c3c2C=NNC4=O)cn1 [Compound 1]
pIC50 [1]: 5.89
pIC50 [2]: 5.70
Ki [3]: 8 nM
modulation of CHK2 activity [4]: no evidence that CHK2 activity is modulated
pIC50 [5]: 7.41
MTD [6]: 60 mg/kg
pIC50 [7]: 6.44
pIC50 [8]: < 5.00
pIC50 [9]: 6.21
pIC50 [10]: 6.03
pIC50 [11]: 7.85
increase in cell kill ([12]; Compound 1 540 nM (12×EC50) + camptothecin compared with camptothecin alone): 21.7
increase in cell kill ([12]; Compound 1 540 nM (12×EC50) + gemcitabine compared with gemcitabine alone): 31.2%
pIC50 [13]: 6.02
pIC50 [14]: 5.55
pIC50 [15]: 6.35
S-Phase arrest by flow cytometry ([16]; combination with gemcitabine): abrogation of gemcitabine induced S-Phase arrest
apoptotic cells by flow cytometry ([16]; gemcitabine + Compound 1 compared with gemcitabine alone): significant increase in apoptotic cells
effect on cell cycle ([16]; in the absence of DNA damage): no effect on cell cycle
pIC50 [17]: 6.58
pIC50 [18]: 7.64
cell growth inhibition [19]: 44%
pIC50 [20]: 5.04
pIC50 [21]: 5.74
pIC50 [22]: 6.38
effect on cell viability ([23]; Compound 1 alone compared with control (untreated) cells): no significant effect on cell viability
potentiation of gemcitabine cytotoxicity ([23]; combination with gemcitabine compared with gemcitabine alone): 89%
cell growth inhibition [24]: 15%

Reference: patent US20090312280A1
